Common to all, as to type: cell-based
Test [1] has as its system Bifidobacterium breve strain JCM1192. Nature of the test: activity of cholic acid uptake by Bifidobacterium breve strain JCM1192 in the presence of an oligosaccharide. As to conditions: 14C-labeled cholic acid; oligosaccharide added at 15 minutes after reaction start; control without oligosaccharide unchanged. As for the experimental part:
(§1) Lactic acid bacteria were cultured in a commercially available MRS medium overnight. The composition of the medium was as follows:
(§2) The harvested cells were washed with a buffer (pH 7.0) of 50 mM potassium phosphate containing 1 mM magnesium sulfate, and then the washed cells were re-suspended in a buffer comprising the same composition. The resulting cell suspension was allowed to stand for 30 minutes to make the cell membrane of the cells the state of deactivation. Then, the cells were harvested by centrifuging the suspension and washed with a buffer (pH 7.0) of 50 mM potassium phosphate containing 1 mM magnesium sulfate. […]
(§3) To 96 μl of the cell suspension prepared as above, 2 μl of 6 mM cholic acid solution (cholic acid (chenodeoxycholic acid) labeled with ^14C, 16 mCi/mmol) was added, and after allowing the resulting suspension to stand for 15 minutes, 0.1 μl of 0.33 M oligosaccharide solution was added thereto, and the measurement of the activity of bile acid uptake was started. After a predetermined time, the reaction was stopped by adding 3 ml of a buffer of 100 mM potassium phosphate containing 100 mM […], and then the reaction solution was filtered through a cellulose acetate membrane (pore size: 0.45 μm), and the radioactivity left on the membrane was measured by a scintillation counter. […]

Test [2] deals with Lactobacillus salivarius ssp. salicinius strain JCM1044. Nature of the test: activity of cholic acid uptake by Lactobacillus salivarius ssp. salicinius strain JCM1044 in the presence of an oligosaccharide. The settings on record: 14C-labeled cholic acid; oligosaccharide added at 15 minutes after reaction start; control without oligosaccharide unchanged. As for the experimental part:
as §1, §2, §3

In test [3] the test system is Bifidobacterium breve strain JCM1192. Nature of the test: activity of chenodeoxycholic acid uptake by Bifidobacterium breve strain JCM1192 in the presence of an oligosaccharide. As to conditions: for chenodeoxycholic acid concentration in the cells relative to that of the outside of the cells: 14C-labeled chenodeoxycholic acid, oligosaccharide added at 15 minutes after reaction start, maximum rise. As for the experimental part: as §1
The harvested cells were washed with a buffer (pH 7.0) of 50 mM potassium phosphate containing 1 mM magnesium sulfate, and then the washed cells were re-suspended in a buffer comprising the same composition. The resulting cell suspension was allowed to stand for 30 minutes to make the cell membrane of the cells the state of deactivation. Then, the cells were harvested by centrifuging the suspension and washed with a buffer (pH 7.0) of 50 mM potassium phosphate containing 1 mM magnesium sulfate. Thereafter, the washed cells were re-suspended in a buffer comprising the same composition, and the cell suspension was adjusted so as to have the turbidity of 10.
To 96 μl of the cell suspension prepared as above, 2 μl of 6 mM cholic acid solution (cholic acid (chenodeoxycholic acid) labeled with ^14C, 16 mCi/mmol) was added, and after allowing the resulting suspension to stand for 15 minutes, 0.1 μl of 0.33 M oligosaccharide solution was added thereto, and the measurement of the activity of bile acid uptake was started. After a predetermined time, the reaction was stopped by adding 3 ml of a buffer of 100 mM potassium phosphate containing 100 mM […], and then the reaction solution was filtered through a cellulose acetate membrane (pore size: 0.45 μm), and the radioactivity left on the membrane was measured by a scintillation counter. In addition, as a control, the radioactivity of a sample adding no oligosaccharide was measured similarly.

Test [4] concerns Bifidobacterium infantis strain JCM1222. The test is described as follows: cholic acid uptake by Bifidobacterium infantis strain JCM1222 in a nystose added-cell suspension. As for the experimental part:
as §1, §2, §3

Experimental findings from US20040208859A1, “Bile acid absorbent/adsorbent” (priority 2001, published 2004) are described below.

For `OC[C@H]1O[C@H](OC[C@H]2O[C@H](O[C@]3(CO)O[C@H](CO)[C@@H](O)[C@@H]3O)[C@H](O)[C@@H](O)[C@@H]2O)[C@H](O)[C@@H](O)[C@H]1O` [raffinose], the “cholic acid concentration in the cells relative to that of the outside of the cells” value in test [1] is reported as “about 30 times”; in test [2], “about 8 times”. For the same compound, in test [3], the “chenodeoxycholic acid concentration in the cells relative to that of the outside of the cells” value was “about 6 times”.

Take `OC[C@H]1O[C@@](CO)(OC[C@@]2(OC[C@@]3(O[C@H]4O[C@H](CO)[C@@H](O)[C@H](O)[C@H]4O)O[C@H](CO)[C@@H](O)[C@@H]3O)O[C@H](CO)[C@@H](O)[C@@H]2O)[C@@H](O)[C@@H]1O` [nystose]: the “cholic acid incorporation into the cells” value in test [4] is reported as “cholic acid was incorporated into the cells”.

Consider `OC[C@H]1O[C@@](CO)(OC[C@@]2(O[C@H]3O[C@H](CO)[C@@H](O)[C@H](O)[C@H]3O)O[C@H](CO)[C@@H](O)[C@@H]2O)[C@@H](O)[C@@H]1O` [1-kestose], for which the “cholic acid concentration in the cells relative to that of the outside of the cells” value in test [1] is recorded as “about 24 times”; in test [2] it was “about 13 times”. In test [3], the “chenodeoxycholic acid concentration in the cells relative to that of the outside of the cells” value is given as “about 15 times”. The “chenodeoxycholic acid concentration in the cells relative to outside at equilibrium after passive elimination” value in test [3] (after oligosaccharide almost consumed (after 30 minutes), concentration came to equilibrium) is “about 2 times”.
